Values after ≈ are worked out from the molar mass of the structure shown.

The test system of one data set is HeLa cells. The data set can be described thus: NRU cell viability assay, HeLa. The class given is cell-based, human. The following applies: Homo sapiens, 24 h. On the procedure:
The murine Swiss albino fibroblast (3T3), the immortal human keratinocyte (HaCaT), the squamous cell carcinoma (A431), the human epithelial carcinoma (HeLa) and the human breast adenocarcinoma (MCF-7) cell lines were sourced from Celltec UB (Barcelona, Spain). All cells were maintained and grown in DMEM medium (4.5 g/L glucose) supplemented with 10% (v/v) FBS, 2 mM L-glutamine, 100 U/mL penicillin and 100 μg/mL streptomycin at 37 °C, 5% CO2. Cells were routinely cultured in 75 cm^2 culture flasks and were trypsinized using trypsin-EDTA when the cells reached approximately 80%. Cell concentration in the resulting suspension was assessed using the trypan blue assay, which enables direct discrimination between viable (unstained) and non-viable (blue) cells.
T3 and HaCaT cells (1 × 10^5 cells/mL), along with A431, HeLa, and MCF-7 cells (5 × 10^4 cells/mL), were cultured at defined seeding densities in the 60 central wells of a 96-well plate. Cells were first incubated for 24 h under standard incubator conditions (5% CO2, 37 °C). After this period, the culture medium was removed, and the cells were incubated for an additional 24 h with their corresponding compound solutions (1 mg/mL) previously diluted in a minimum amount of DMF (dimethylformamide) and then in DMEM medium supplemented with 5% FBS (100 µL) at the required concentration range (20 to 250 µg/mL). Cell viability following exposure to the lactam derivatives was evaluated using two complementary assays: NRU and MTT.
The neutral red uptake (NRU) assay is based on the accumulation of dye in the lysosomes of viable cells. After the cells were incubated for 24 h with the corresponding systems, the medium was removed, and the solutions were incubated with the NR dye (Sigma-Aldrich, St. Louis, MO, USA) solution (50 µg/mL) dissolved in the medium, without FBS and without phenol red (Lonza, Verviers, Belgium), for 3 h. Cells were then washed with sterile PBS, followed by the addition of 100 µL of a solution containing 50% absolute ethanol and 1% acetic acid in distilled water to extract the dye. To promote the total dissolution of the dye, plates were placed in a microtiter-plate shaker for 5 min at room temperature. The absorbance of the resulting solutions was measured at 550 nm (Bio-Rad 550 microplate reader, Bio-Rad California, Hercules, CA, USA). Finally, the effect of each treatment was calculated as the percentage of dye uptake by viable cells relative to the control cells (cells without any treatment). Finally, the effect of each treatment was calculated as the percentage of dye retained by viable cells compared with untreated control cells.
The half-maximal inhibitory concentration (IC50) values for the different formulations, across cell lines and experimental endpoints, were obtained by fitting the concentration-dependent viability curves. […] These findings reflect the very low cytotoxicity of the compounds toward these cell lines.

The nature of the next data set: Hemolysis assay. It counts as cell-based. The following applies: human, human erythrocyte suspension, pH 7.4, 10 and 80 µg/mL. The method, then: Human blood samples were obtained from the Banc de Sang i Teixits de Barcelona (Barcelona, Spain) under the Catalan Department of Health. Blood was collected in tubes containing the anticoagulant EDTA-K3. Samples were centrifuged at 3000 rpm and 4 °C for 10 min (Megafuge 2.0 R, Heraeus Instruments, Hanau, Germany) to promote sedimentation, after which plasma was carefully eliminated using a Pasteur pipette. The remaining pellet was washed with PBS (pH 7.4) three times to remove residual leukocytes and platelets while concentrating erythrocytes. After the final wash, the erythrocyte pellet was resuspended in PBS (pH 7.4) at a 1:1 ratio to achieve a final erythrocyte concentration of 8 × 10^9 cells/mL.
The hemolysis assay is used to evaluate the ability of the tested compounds to disrupt erythrocyte membranes. Stock solutions of each compound were prepared in PBS (pH 7.4) at a concentration of 1 mg/mL. Volumes ranging from 10 to 80 μL were transferred into polystyrene tubes, followed by the addition of 25 µL of the erythrocyte suspension, bringing the total volume to 1 mL. The samples were incubated at room temperature under gentle rotation and subsequently centrifuged at 10,000 rpm for 5 min. The absorbance of the resulting supernatants at 540 nm (Shimadzu UV-160A, Shimadzu, Duisburg, Germany) was measured and compared with that of the positive control (erythrocytes hemolyzed with distilled water) and the negative control (erythrocytes suspension in PBS, pH 7.4).
The degree of hemolysis was determined using the following equation:Hemolysis (%) = 100 × (Abs − Abs0)/(Abs100 − Abs0) where Abs, Abs0 and Abs100 are the absorbance of the test samples, of the suspension treated with isotonic phosphate–buffered saline (PBS) and of the suspension of complete hemolysis treated with distilled water, respectively.

Data set [1] is described as follows: Fish Embryo Acute Toxicity (FET) assay: lethality and dysmorphogenesis. It counts as in vivo. The conditions noted are these: zebrafish (Danio rerio), in vivo; zebrafish embryos exposed 2 to 72 hpf, 1.95-125 µg/mL; read-out: LC50 (lethal concentration 50). On the procedure: (§1) (2 mM CaCl2·2H2O; 0.5 mM MgSO4·7H2O; 0.75 mM NaHCO3; 0.07 mM KCl). The fish were maintained at a temperature of 26 ± 1 °C on a 14 h light and 10 h dark cycle and were daily fed in the morning with Artemia salina, and with commercial flake food in the afternoon (SDS400, Special Diet Services, Dietex, France). The day before eggs were needed, males and females were placed in a breeding tank with plants at a 2:1 male-to-female ratio. The following morning, eggs were collected 30 min after the lights were turned on. […] Fertilized, non-coagulated, and synchronously divided eggs were selected using a stereomicroscope (Motic SMZ168, Motic China group, Ltd., Xiamen, China) and transferred to 6-well plates (10 embryos/well). Embryos were exposed to freshly prepared tested concentrations of the compound in 0.3× Danieau’s solution. Chemical stock solution was prepared in 100% dimethylsulfoxide (DMSO) and subsequently diluted in Danieau’s buffer with a final DMSO concentration of 1% (v/v). Test was carried out using five concentrations with a negative control, solvent control with 1% of DMSO. Embryos were incubated at 27 ± 1 °C with a light–dark cycle of 14:10 h until 72 h post-fertilization (hpf) under semi-static conditions, as exposure solutions were renewed by freshly prepared solutions every 24 h.
(§2) At 24, 48 and 72 hpf embryos were observed under a stereomicroscope to assess lethality. […] At the end of the test, dysmorphogenesis was evaluated in live embryos only. The average lethality and dysmorphogenesis were calculated for 10 embryos per concentration, followed by averaging the results of at least three independent experiments. […] The Teratogenic Index (TI) was deter-mined as the ratio between the LC50 and EC50 (TI = LC50/EC50).

The test system of another data set is zebrafish embryos. The description is as above. It counts as in vivo. The following applies: for EC50: Danio rerio, read-out: EC50 (dysmorphogenesis); for teratogenicity classification: TI > 2; for Teratogenic Index (TI = LC50/EC50): zebrafish embryos. On the procedure:
as §1, §2

In general, IC50 refers to the concentration that gives 50% inhibition. Read a low IC50 as greater potency. In general, EC50 refers to the concentration giving half of the maximal effect. In turn, `C[C@@H]1CN([C@@H](C)c2ccccc2)C(=O)C1(Cl)Cl` [Compound 3, (R)-3,3-dichloro-4-methyl-1-((S)-1-phenylethyl)pyrrolidin-2-one] showed a 50% inhibitory concentration (IC50) with HeLa cells of 160 µg/mL (≈ 588 µM). This compound also came in with a hemolysis in the data set “Hemolysis assay” of under 2%. In addition, the LC50 in data set [1] was 63.8 µg/mL (≈ 234 µM). Besides, in the data set with zebrafish embryos, the EC50 is 18.3 µg/mL (≈ 67.1 µM), the teratogenicity classification result was “potential teratogens” and the “Teratogenic Index (TI = LC50/EC50)” value is 3.5.

As for `C[C@H](c1ccccc1)N1C[C@H](C)C(Cl)(Cl)C1=O` [Compound 4], the IC50 in the data set with HeLa cells was 77.5 µg/mL (≈ 285 µM). In “Hemolysis assay”, the hemolysis is under 2%. For the same compound, the LC50 in data set [1] is 33.2 µg/mL (≈ 122 µM). In addition, in the data set with zebrafish embryos, the EC50 was 11.2 µg/mL (≈ 41.3 µM), the teratogenicity classification result is on record as “potential teratogens” and the “Teratogenic Index (TI = LC50/EC50)” value is 2.95. In addition, the “embryos exhibiting morphological abnormalities” value with zebrafish embryos (at 15.6 µg/mL) is recorded as “more than 20%”.
